The subject of one assay is MRSA LAC FtsZ-mCherry. Put plainly: Colocalization of BOFP labeling with induced FtsZ-mCherry fusion protein. The assay is classed as cell-based, Staphylococcus aureus. As to conditions: 1 µg/mL BOFP for 5 minutes; vehicle-treated and 1-treated cells. The method, then:
(§1) All differential interference contrast (DIC) and fluorescence microscopy experiments were conducted using an Olympus BX50 microscope equipped with an X-cite Exacte 200 W mercury lamp, a 100× Olympus UPLSAPO oil immersion objective (1.40 aperture), as well as both Chroma ET-EGFP (FITC/Cy2) and ET mCherry, Texas Red filters. Images were captured using a QImaging Retiga R3 charge-coupled device (CCD) camera and the Ocular-Version 2.0 software package (QImaging).
To visualize the impact of treating MRSA LAC FtsZ-mCherry with 1, cells were grown to log-phase in CAMH broth and diluted to an OD600 of 0.1. […] Following this treatment, 1–5 mL of each culture was centrifuged at 15,000 × g for 1 minute and washed twice with 1 mL of PBS. The resulting cell pellets were further processed and labeled with BOFP as described above for the Gram-positive bacterial strains.

Assay [1] addresses T1, FtsZ in S. aureus NRS705 cells (Staphylococcus aureus, UniProt P0A031).
T1 construct: endogenous in cells; host or cells: S. aureus NRS705 (USA100 MRSA)
The assay is classed as cell-based. As to conditions: 1 µg/mL for 5 minutes. Here is the method: as §1
For visualizing FtsZ in Gram-positive bacteria using BOFP, the bacterial cells were grown to log-phase in media suitable for each individual pathogen. Specifically, S. aureus NRS705 (MRSA) was grown in tryptic soy broth (TSB), E. faecalis ATCC 29212 and E. faecium ATCC 19434 were grown in lactobacilli MRS broth, S. agalactiae ATCC 12386 and S. pneumoniae ATCC 49619 were grown in TH broth, and S. pyogenes ATCC 19615 was grown in CAMH broth supplemented with 3% (v/v) LHB. For each Gram-positive bacterial strain, a total of 1 mL of cell culture was centrifuged at 15,000 × g for 1 minute and washed 2–3 times with 1 mL of PBS. After the final wash, the pelleted cells were resuspended in 500 µL of PBS containing 1 µg/mL of BOFP and incubated in the dark for 5 minutes at room temperature. The cells were then centrifuged at 15,000 × g for 1 minute, washed twice with 1 mL of PBS, and subsequently resuspended in 200 µL of PBS. […]

The target of another assay is E. faecalis (EfsFtsZ) (Enterococcus faecalis, UniProt O08439). Put plainly: Fluorescence anisotropy binding of BOFP to EfsFtsZ. The note with it: for Kd: 50 mM Tris-HCl (pH 7.6), 50 mM KCl, 0.1 µM BOFP. Here is the method: (§2) Fluorescence anisotropy experiments were performed using an AVIV model ATF105 spectrofluorometer at 15, 25, or 37 °C. In these experiments, bandwidths were set to 4 nm in both the excitation and emission directions, with the excitation and emission wavelengths being set at 488 nm and 510 nm, respectively. BOFP (0.1 µM) was titrated with increasing concentrations (ranging from 0 to 12 µM) of FtsZ in 120 µL of buffer containing 50 mM Tris-HCl (pH 7.6) and 50 mM KCl. After each protein addition, the samples were equilibrated for 3 minutes, whereupon the fluorescence anisotropy was measured.
(§3) In this equation, r0 is the anisotropy of the protein-free compound, r∞ is the anisotropy of the compound in the presence of an infinite concentration of FtsZ, [C]tot is the total concentration of the compound, and [P]tot is the total concentration of protein with each addition. These analyses yielded the equilibrium dissociation constant (Kd) for each binding reaction.
(§4) The binding free energy (ΔG) at temperature T was derived from the corresponding Kd value determined at T using the following relationship:2 ΔG=−RTln(1/Kd)
(§5) The binding enthalpy (ΔH) and entropy (ΔS) were derived from linear fits of the ln(1/Kd) vs. 1/T plots shown in Figs. 3f and 5e using the following relationship:3 ln(1/Kd)=−ΔH/R(1/T)+ΔS/R
(Polarisation of emitted light reports the rotation of a fluorescent probe.)

A further assay concerns the target T2, S. pneumoniae (SpnFtsZ) (Streptococcus pneumoniae, UniProt A0A0H2ZNE0).
T2 sequence (A0A0H2ZNE0 1-419): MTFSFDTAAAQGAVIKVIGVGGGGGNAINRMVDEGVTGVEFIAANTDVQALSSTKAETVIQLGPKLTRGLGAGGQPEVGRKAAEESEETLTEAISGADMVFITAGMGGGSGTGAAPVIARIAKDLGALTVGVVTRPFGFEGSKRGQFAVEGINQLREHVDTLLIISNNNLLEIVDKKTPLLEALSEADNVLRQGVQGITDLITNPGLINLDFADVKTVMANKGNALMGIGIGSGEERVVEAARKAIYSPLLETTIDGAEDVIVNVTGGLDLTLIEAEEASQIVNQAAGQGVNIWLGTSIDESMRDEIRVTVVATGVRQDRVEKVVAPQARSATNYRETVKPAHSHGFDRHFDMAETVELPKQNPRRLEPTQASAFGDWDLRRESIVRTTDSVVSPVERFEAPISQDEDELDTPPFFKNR
The experiment in a line: Fluorescence anisotropy binding of BOFP to SpnFtsZ. The note with it: for Kd: 50 mM Tris-HCl (pH 7.6), 50 mM KCl, 0.1 µM BOFP. The method, then: as §2, §3, §4, §5

For a further assay, the target named is T3, A. baumannii (AbFtsZ) (Acinetobacter baumannii, UniProt V5V8B6).
T3 sequence (V5V8B6 1-391): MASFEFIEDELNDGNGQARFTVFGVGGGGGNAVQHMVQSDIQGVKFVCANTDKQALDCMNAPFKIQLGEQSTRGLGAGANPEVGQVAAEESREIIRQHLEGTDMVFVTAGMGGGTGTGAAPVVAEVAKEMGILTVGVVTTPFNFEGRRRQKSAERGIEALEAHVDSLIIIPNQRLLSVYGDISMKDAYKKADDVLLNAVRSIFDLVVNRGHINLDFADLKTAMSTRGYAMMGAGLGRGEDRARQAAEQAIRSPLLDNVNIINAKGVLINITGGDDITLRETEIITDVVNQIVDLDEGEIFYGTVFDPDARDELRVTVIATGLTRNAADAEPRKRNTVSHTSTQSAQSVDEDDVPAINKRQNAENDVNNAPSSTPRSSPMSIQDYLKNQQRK
The experiment in a line: Fluorescence anisotropy binding of BOFP to AbFtsZ. As to conditions: for Kd: 50 mM Tris-HCl (pH 7.6), 50 mM KCl, 0.1 µM BOFP. Here is the method:
as §2, §3, §4, §5

[2] abbreviates: calculated at T = 310 K (37 °C) from Kd.
Setting [3] is: from linear fit of ln(1/Kd) vs. 1/T.

Data on 1 compound can be found in article PMC6934700, “Structure-Guided Design of a Fluorescent Probe for the Visualization of FtsZ in Clinically Important Gram-Positive and Gram-Negative Bacterial Pathogens” (Scientific Reports, 2019).

The Kd is the constant that tells how readily two partners part at equilibrium.

Where two headings read alike, the source gives them in different places.

Chain of E. faecalis (EfsFtsZ) (O08439 whole entry): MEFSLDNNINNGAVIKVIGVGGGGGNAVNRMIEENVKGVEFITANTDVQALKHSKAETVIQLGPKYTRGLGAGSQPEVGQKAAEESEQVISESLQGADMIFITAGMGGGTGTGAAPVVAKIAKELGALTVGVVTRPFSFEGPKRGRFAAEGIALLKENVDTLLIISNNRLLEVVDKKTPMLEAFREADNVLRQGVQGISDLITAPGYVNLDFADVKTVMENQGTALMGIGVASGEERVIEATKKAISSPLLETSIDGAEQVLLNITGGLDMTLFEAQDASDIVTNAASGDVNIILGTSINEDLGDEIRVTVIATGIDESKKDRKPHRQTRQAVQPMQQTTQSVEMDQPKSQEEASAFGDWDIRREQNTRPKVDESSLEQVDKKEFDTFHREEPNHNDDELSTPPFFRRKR
T1 sequence (P0A031 whole entry): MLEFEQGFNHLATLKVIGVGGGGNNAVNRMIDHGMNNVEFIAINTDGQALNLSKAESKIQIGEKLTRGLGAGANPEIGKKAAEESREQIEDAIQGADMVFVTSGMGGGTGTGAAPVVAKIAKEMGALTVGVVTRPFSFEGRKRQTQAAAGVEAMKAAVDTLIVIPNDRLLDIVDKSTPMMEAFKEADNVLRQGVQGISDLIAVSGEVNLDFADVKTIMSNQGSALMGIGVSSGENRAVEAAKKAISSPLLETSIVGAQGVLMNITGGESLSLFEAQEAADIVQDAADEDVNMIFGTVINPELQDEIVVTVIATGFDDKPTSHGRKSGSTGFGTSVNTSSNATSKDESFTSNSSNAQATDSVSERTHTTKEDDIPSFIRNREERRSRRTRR

With `CC1=CC(C)=[N+]2C1=Cc1ccc(CCC(=O)OCC(Oc3ccc(F)c(C(N)=O)c3F)c3nc(-c4ccc(C(F)(F)F)cc4)c(Br)o3)n1[B-]2(F)F` (centres unmarked) [BOFP], in the assay with MRSA LAC FtsZ-mCherry, the “Colocalization of BOFP green fluorescence with FtsZ-mCherry red fluorescence” value is given as “colocalizes with the red fluorescence”. Besides, the “Fluorescence staining / FtsZ labeling in live cells” value in assay [1] is “bright bands of fluorescence staining are clearly visible at midcell”. The Kd amounted to 1.72 ± 0.06 µM on E. faecalis (EfsFtsZ) (Kd - 15 °C, 15 °C); 3.05 ± 0.25 µM at E. faecalis (EfsFtsZ) (Kd - 25 °C, 25 °C); 4.62 ± 0.12 µM on E. faecalis (EfsFtsZ) (Kd - 37 °C, 37 °C); 3.02 ± 0.3 µM on S. pneumoniae (SpnFtsZ) (15 °C, read-out: Kd - 15 °C); 3.49 ± 0.25 µM at S. pneumoniae (SpnFtsZ) (25 °C, read-out: Kd - 25 °C); 3.81 ± 0.69 µM on S. pneumoniae (SpnFtsZ) (37 °C, read-out: Kd - 37 °C). Besides, the Kd on A. baumannii (AbFtsZ) (15 °C, read-out: Kd - 15 °C) amounted to 0.4 ± 0.03 µM; on A. baumannii (AbFtsZ) (25 °C, read-out: Kd - 25 °C), 0.55 ± 0.02 µM; at A. baumannii (AbFtsZ) (37 °C, read-out: Kd - 37 °C), 0.68 ± 0.04 µM. The ΔG on E. faecalis (EfsFtsZ) (setting [2]) was -7.6 ± 0.1 kcal/mol; on S. pneumoniae (SpnFtsZ) (setting [2]), -7.7 ± 0.1 kcal/mol. Besides, the ΔH on E. faecalis (EfsFtsZ) (setting [3]) was -7.9 ± 1.0 kcal/mol; at S. pneumoniae (SpnFtsZ) (setting [3]), -1.9 ± 0.3 kcal/mol; at A. baumannii (AbFtsZ) (setting [3]), -4.2 ± 0.6 kcal/mol. The ΔS on E. faecalis (EfsFtsZ) (setting [3]) is −1.2 ± 3.3 cal/mol•K.
